Tested on: KYSE140-MUT cells
Test: Intracellular cytokine staining (IFN-γ) of CTLs from immunized Tg mice
Format: in vivo, HLA-A2.1/K^b Tg mice
Conditions: 100 μg/mouse s.c. with CpG ODN 1826 once a week for three weeks; spleen lymphocytes re-stimulated with MUT peptide; KYSE140-MUT target cells; n = 5 per group
Protocol: To investigate whether neoepitopes could induce a peptide-specific T cell response in vivo, HLA-A2.1/K^b Tg mice were used and immunized according to the procedure de-scribed previously. In brief, mutant peptides or WH-mutant peptides (100 μg per mouse) with CpG-ODN 1826 (30 μg per mouse) were injected s.c. in the back of HLA-A2.1/K^b Tg mice (five mice per group, randomly grouped) once a week for three weeks. The normal saline (NS) group was immunized s.c. only with CpG ODN 1826 (30 μg/mouse) once a week for three weeks. Five days after the last injection, spleen lymphocytes were isolated and cultured at the concentration of 5 × 10^6 cells/mL in RPMI 1640 medium. These cells were induced by the same mutant peptides (10 μg/mL) that were used for in vivo stimulation and mIL-2 (30 U/mL) for a week. Intracellular cytokine staining assay (ICS) and cytotoxic assay (E: T ratios = 20:1, 40:1, 80:1) were performed after a week induced in vitro [22].
To test the MUT peptides stimulation of CTL response in vivo, peptide-specific T cells induced from Tg mice were co-cultured with tumor cell lines transfected with WT or MUT minigenes, as described in the in vitro assay. […] Intracellular cytokines were marked by anti-mouse IFN-γ or anti-mouse granzyme B, respectively, and analyzed by flow cytometry (BD FACSCelesta™, USA).

Row | Sequence | IFN-γ secretion of CTLs (IFN-γ+ CD8+ T cells)
1 | ILWRQDINL [NFE2L2-D13N] | 1.5%
2 | LLGPNSFEV [TP53-R267P] | 1.1%

Reference: publication PMC8541546, “Identification of HLA-A2-Restricted Mutant Epitopes from Neoantigens of Esophageal Squamous Cell Carcinoma” (Vaccines, 2021)
